Where “and” joins values, the source holds several entries; their conditions need not be identical. Equal entries are not always repeated. Where two headings read alike, the source gives them in different places.
Legend:
[1] = test system: bovine corneal endothelial cells; assay: Incorporation of sulfate, proline, lysine and glycine into ECM of bovine corneal endothelial cells; type: cell-based; conditions: eight days after seeding
Method: Corneal endothelial cells were seeded at a confluent density and grown as described in Example 3 above. The cells were cultured with or without Halofuginone in the presence of either Na2^35SO4 (FIG. 4A), ^3H-proline (FIG. 4B), ^14C-lysine (FIG. 4C) or ^14C-glycine (FIG. 4D). Eight days after seeding, the cell layer was dissolved substantially as described in Example 3 above. The underlying ECM was then either trypsinized to determine the effect of Halofuginone on incorporation of labeled material into total protein, substantially as described in Example 3 above, or subjected to sequential digestions with collagenase and trypsin to evaluate the effect of Halofuginone on both collagenase-digestible proteins (CDP) and non-collagenase digestible proteins (NCDP).

[2] = test system: bovine corneal endothelial cells; assay: Viability and morphology of confluent corneal endothelial cell monolayer; type: cell-based; conditions: growth arrested monolayer
Excerpt: (§1) As noted above, skin cell hyperproliferation is enabled by the deposition of ECM components. The following examples illustrate the ability of Halofuginone to inhibit such deposition of ECM components, further supporting the use of Halofuginone as a treatment for psoriasis. These examples illustrate the unexpected finding that Halofuginone completely abolishes deposition of all ECM components, and not just collagen, thereby preventing cell proliferation which is enabled by the formation of ECM. Cultures of bovine corneal endothelial cells were established from steer eyes and maintained as previously described [D. Gospodarowicz, et al., Exp. Eye Res., No. 25, pp. 75-99 (1977)]. Cells were cultured at 37° C. in 10% CO2 humidified incubators and the experiments were performed with early (3-8) cell passages.
(§2) For preparation of sulfate-labelled ECM (extra-cellular matrix), corneal endothelial cells were seeded into Swell plates at a confluent density forming, within 4-6 h, a contact inhibited cell monolayer composed of closely apposed, and growth arrested cells. […] To determine the total amount of sulfate labeled material, the ECM was digested with trypsin (25 μg/ml 24 h, 37° C.) and the solubilized material counted in a β-counter.

[3] = test system: bovine corneal endothelial cells; assay: Sulfate incorporation into ECM of cultured endothelial cells; type: cell-based; conditions: FIG. 3
Excerpt: as §1, §2

rats = assay: Post-surgical abdominal adhesion formation in rats, Halofuginone in diet as pretreatment; type: in vivo, rat
Method: The experimental method was as follows. Halofuginone was administered in the diet of two groups of rats at a concentration of 5 mg/kg dry feed for 4 days before surgery, as a pretreatment. Two other groups of rats were fed a normal diet and served as control groups. One of the groups of rats fed Halofuginone and one control group then underwent surgery, which was performed as follows. First, the abdomen of the rats was shaved and prepared with iodine and alcohol. The abdominal cavity was entered through a mid-line incision. The small intestine was scraped from the duodenum down to from about 9 to about 10 cm from the cecum, until capillary bleeding occurred. To avoid drying, Hartman's solution at about 37 C. was occasionally dripped on the intestine. After replacement of the intestine into the abdominal cavity, the abdomen was closed in two layers with continuous 00 chromic catgut suture.
In those rats receiving the drug, Halofuginone treatment was continued for 21 days following surgery. At the end of 21 days, the rats were weighed and the number and severity of adhesions were determined according to a double-blind procedure, in which adhesions were classified according to the following grading: 0=no adhesions; I=a thin, filmy, easily separated adhesion; II=several thin adhesions; III=a thick, broad adhesion and IV=several thick adhesions. Clearly, 0 is the least severe and IV is the most severe grade.

Rat mesengial cells = assay: Sulfate and glycine incorporation into rat mesengial cell ECM; type: cell-based; conditions: for inhibition at 0.05 µg/mL / inhibition at 0.2 µg/mL: Rattus norvegicus; for inhibition at 0.05 µg/mL: 50 ng/ml Halofuginone; for inhibition at 0.2 µg/mL: 200 ng/ml Halofuginone
Method: Rat […] grown to confluency, 24 hours after seeding. The cells were then cultured with or without Halofuginone in the presence of either Na2^35SO4 (FIGS. 5A and 5B) or ^14C-glycine (FIGS. 5C and 5D). Eight days after seeding, the cell layer was dissolved to expose the underlying ECM, washed and digested with collagenase to determine the effect of Halofuginone on CDP proteins, as shown in FIGS. 5A and 5C. The remaining material was digested with trypsin and subjected to β-scintillation counting to determine the effect of Halofuginone on NCDP proteins, as shown in FIGS 5B and 5D.

keloid-derived cells = assay: Collagen synthesis in keloid-derived cells ([3H]proline incorporation, collagenase digestion); type: cell-based, human; conditions: 24 hours incubation, FIG. 2
Method: A keloid, which had arisen in response to the piercing of the ear for insertion of an earring, was removed from the ear lobe of a person. The keloid tissue was sectioned so that histological studies could be performed. Briefly, the tissue samples were collected into phosphate-buffered saline (PBS) and fixed overnight in 4% paraformaldehyde in PBS at 4° C. Serial 5 um sections were prepared after the samples had been dehydrated in graded ethanol solutions, cleared in chloroform and embedded in Paraplast. Differential staining of collagenous and non-collagenous proteins was performed with 0.1% Sirius red and 0.1% fast green as a counter-stain in picric acid. This procedure stains collagen red [Gascon-Barre, M., et al., J. Histochem. Cytochem., Vol 37, p. 377-381, 1989].
The keloid was removed as described in Example 1 above. The keloid-derived cells were incubated with and without Halofuginone for 24 hours in 0.5 ml glutamine-free DMEM containing 5% FCS (Fetal Calf Serum), ascorbic acid (50 μg/ml), B-aminopropionitrile (50 μg/ml) and 2 μCi of [^3H]proline. At the end of incubation, the medium was decanted and the cells were incubated with or without collagenase for 18 hours, followed by precipitation of proteins by the addition of TCA (trichloroacetic acid). […]

## O=C(CC1NCCCC1O)Cn1cnc2cc(Br)c(Cl)cc2c1=O (centres unmarked) [Halofuginone]
[1]; 3H-proline, both CDP and NCDP, FIG. 4B
  incorporation of proline into ECM: inhibited
[1]; 14C-glycine, both CDP and NCDP, FIG. 4D
  incorporation of glycine into ECM: inhibited
[1]; 14C-lysine, both CDP and NCDP, FIG. 4C
  incorporation of lysine into ECM: inhibited
[1]; Na2 35SO4, both CDP and NCDP, FIG. 4A
  incorporation of sulfate into ECM: inhibited
[2]
  concentration up to which cells remained viable and retained normal monolayer configuration and morphological appearance: ≤ 2 μg/ml
[3]; 1 μg/ml Halofuginone
  inhibition of sulfate incorporation into ECM: almost complete inhibition
[3]; Bos taurus, Endothelial cell, 0.2 μg/ml Halofuginone
  inhibition at 0.2 µg/mL: 50%
rats; individual rats, Group Number 2 (taken as surgery + Halofuginone 5 mg/kg dry feed, 4 days before and 21 days after surgery)
  Adhesion Score: 0-1 (3×) and 0 (3×) and 1 (2×) and 1-2 (2×)
rats; no surgery, Halofuginone in diet
  adhesions in rats without surgical intervention: None of the rats without surgical intervention
rats; rats with surgery, Halofuginone in diet 5 mg/kg dry feed
  post-surgical adhesion formation: able to inhibit post-surgical adhesion formation
Rat mesengial cells; ECM produced in the presence of Halofuginone
  microscopic examination of denuded culture dishes (ECM layer): thin or non-existant layer of ECM
Rat mesengial cells; collagenase-digestible proteins, read-out: inhibition of glycine incorporation, CDP proteins
  inhibition at 0.05 µg/mL: ~80%
Rat mesengial cells; non-collagenase digestible proteins, read-out: inhibition of glycine incorporation, NCDP proteins
  inhibition at 0.05 µg/mL: ~80%
Rat mesengial cells; collagenase-digestible proteins, read-out: inhibition of sulfate incorporation, CDP proteins
  inhibition at 0.2 µg/mL: ~30%
Rat mesengial cells; non-collagenase digestible proteins, read-out: inhibition of sulfate incorporation, NCDP proteins
  inhibition at 0.2 µg/mL: ~70%
keloid-derived cells
  production of collagen (collagenase-digestible [3H]proline-labelled proteins): inhibited the production of collagen
  production of non-collagenase digestible proteins: not of non-collagenase digestible proteins

From patent publication USRE39096E1, “Treatment of skin disorders” (Hadasit Medical Research Services and Development Company …, priority 1997, dated 2006)
